Assay [1] concerns DSS-induced colitis in C57BL/6 mice. The experiment in a line: DSS-induced colitis murine study, Example 1A (endoscopy, stool consistency, body weight). It is filed as in vivo. As to conditions: for mean endoscopy score: INS1007 1 mg/kg PO BID Day -7 to 20, scale 0-4. As for the experimental part:
Mice: Seventy-nine (79) male C57BL/6 mice with an average starting body weight (SEM) of 23.32 g (+1.53 g) were obtained from Charles River Laboratories (Wilmington, Mass.). Animals were acclimatized prior to the study. During this period, the animals were observed daily in order to reject any that presented in poor condition. Animals were fed with 5053 sterile rodent diet and water was provided ad libitum.
INS1007 Solutions: INS1007 was diluted with 0.5% hydroxypropylmethylcellulose in citrate buffer w/0.1% Tween 80 (pH 3.0). Solutions were stored at 4° C. INS1007 solutions were discarded after 3 days and fresh solutions were prepared.
Anti-p40 mAb solution: Anti-mouse IL-12 p40 (Clone: C17.8) obtained from BioXCell (Cat #: BE0051) was diluted with phosphate buffered saline. Solutions were stored at 4° C. Anti-mouse IL-12 p40 solutions were discarded after 7 days and fresh solutions were prepared.
DSS Induction Solution: Dextran sulfate sodium salt obtained from MP Biomedical (Cat #02160110) was diluted with water. DSS solutions were stored at room temperature.
Groups 1-4 were negative controls; groups 5-7 were treated with INS 1007 and Group 8 was treated with Anti-p40 mAb. ^i The dosing protocol for the Anti-p40 antibody is not shown in FIG. 1.
The study included three phases: a pre-treatment period (Veh/1007 Pretx in FIG. 1); DSS-induction period (DSS in FIG. 1) and a treatment period (Veh/1007 in FIG. 1). Colitis was induced in Groups 3-8 by exposure to 3% DSS Induction Solution from Day 0 to Day 5. Animals in Groups 2 and 4-7 were dosed via oral gavage (PO) twice daily (BID) from Days −7 to 20 with INS1007 Solution or vehicle, as indicated in Table 1. Animals in Group 8 were dosed via intraperitoneal (IP) injection once every third day (Q3D) from Day 0 to 18 with Anti-p40 mAb solution.
All animals were weighed daily and assessed visually for the presence of diarrhea and/or bloody stool at the time of dosing. Each mouse, under isoflurane anesthesia, underwent video endoscopy on Days 10, 14, & 21 using a small animal endoscope (Karl Storz Endoskope, Germany), to assess colitis severity. Colitis severity was scored using a 0-4 scale (0=normal; 1=loss of vascularity; 2=loss of vascularity and friability; 3=friability and erosions; 4=ulcerations and bleeding). Stool consistency was scored during endoscopy using the parameters defined in Table 2. Following endoscopy on day 21, all animals from each treatment group were sacrificed.

A further assay concerns neutrophil elastase (NE). The experiment in a line: Bone marrow neutrophil elastase (NE) activity in lysates from mice of Example 1A. The following applies: vs vehicle treated control group. It is filed as in vivo, C57BL/6 mice. As for the experimental part: Following euthanasia, bone marrow (from both femurs and tibias) were collected, lysed, and then snap frozen. The frozen tissue was stored at −80° C.
Bone Marrow Neutrophil Activity: The ability of INS1007 to reduce neutrophil activation in DSS-induced colitis in C57BL/6 mice was evaluated. The neutrophil activity of bone marrow extracts taken from the euthanized mice of Example 1A was observed.
All animals from Example 1A had both femurs and tibias removed and bone marrow was aspirated out with ice-cold using Roswell Park Memorial Institute (RPMI) buffer. Cell pellets were collected after red blood cell lysis and wash with PBS. […]
For neutrophil elastase (NE) activity assay, bone marrow cell lysates were added to 96-well black plate and incubated for 15 minutes in the presence of DMSO or NE inhibitor (Abcam, Cat #ab142154). […] The resulting fluorescence was measured at 350 nm excitation and 450 nm emission in a kinetic mode by reading every 5 minutes for up to 3 hours at 37° C. The fluorescence was read using a BioTek Synergy plate reader. The reaction rate was calculated with the initial slopes of the linear range and a standard curve for the natural mouse elastase amounts were plotted against their slopes. The net NE activity (in the unit of natural mouse elastase amount) by subtracting the NE inhibitor control wells from non-inhibited well were calculated based on the standard curve.

For `Cn1c(=O)oc2ccc(-c3ccc(C[C@@H](C#N)NC(=O)[C@@H]4CNCCCO4)cc3)cc21` [INS1007, (2S)—N-{(1S)-1-cyano-2-[4-(3-methyl-2-oxo-2,3-dihydro-1,3-benzoxazol-5-yl)phenyl]ethyl}-1,4-oxazepane-2-carboxamide], the mean endoscopy score is on record as 2.25 in assay [1] (Day 10, DSS-Vehicle control 2.67); 1.92 in assay [1] (Day 14, DSS-Vehicle control 2.79); 2.08 in assay [1] (Day 21, DSS-Vehicle control 2.36). In addition, in assay [1] (INS1007 PO BID, vs DSS-vehicle control (peak loss -18.46% Day 11)), the “weight loss (percentage of starting weight on Day 0)” value was “modestly attenuated weight loss”. In addition, the stool consistency scores result in assay [1] (INS1007 at all three concentrations (0.1, 1, 10 mg/kg PO BID), Days 10, 14, 21, particularly Days 14 and 21) is listed as “modest decreases in stool scores”. The “bone marrow neutrophil activity (NE activity)” value with neutrophil elastase (NE) (INS1007 1 mg/kg PO BID) and in the assay with neutrophil elastase (NE) (INS1007 10 mg/kg PO BID) was “significantly reduced” in each case.

Source of the values: patent publication US20210252015A1, “CERTAIN (2S)-N-[(1S)-1-CYANO-2-PHENYLETHYL]-1,4-OXAZEPANE-2-CARBOXAMIDES FOR TREATING INFLAMMATORY BOWEL DISEASE” (Insmed Incorporated, priority 2018, published 2021).
